Here are results for 47 compounds from patent US20230123334A1, “AMINO LIPID COMPOUND, PREPARATION METHOD THEREFOR, AND APPLICATION THEREOF” (SHENZHEN SHENXIN BIOTECHNOLOGY CO., LTD., priority 2020, published 2023).

This assay relates to HEK293 cells. Description: Preliminary screening as DNA vectors, GFP transfection of HEK293 cells. Type of assay: cell-based. To be noted: amino lipid/DOPE liposome with 75 ng plasmid DNA (psin-EGFP-IRES-Puro); number of GFP-expressing cells divided by total nuclei (Hoechst). In outline: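 Lipid + DOPE liposomes (NaOAc, pH 5.6) complexed w/ 75 ng psin-EGFP-IRES-Puro, 30 min RT; added to 3-5×10^4 HEK293/well, 37° C. Hoechst 0.2 μg/mL at 20-24 h, imaged after further 20-24 h. Efficiency = GFP+ cells / total nuclei.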
Turning to `CCCCCCCCCCCCCCCSc1nc(NCCCCCCCC)nc(NCCN2CCCCC2)n1` [S15N8 D4], the “Absolute DNA transfection efficiency in HEK293 cells” value (shortened to “Absolute DNA transfection efficiency”) was 3.0%.

Turning to `CCCCCCCCCCCCCCCSc1nc(NCCCCCCCC)nc(NCCN2CCN(C)CC2)n1` [S15N8 D5], the “Absolute DNA transfection efficiency” value is reported as 17.3%.

As for `CCCCCCCCCCCCCCCSc1nc(NCCCCCCCC)nc(NCCCN(C)C)n1` [S15N8 D6], the “Absolute DNA transfection efficiency” value is 23.9%.

In the case of `CCCCCCCCCCCCCCCSc1nc(NCCCCCCCC)nc(NCCN(CC)CC)n1` [S15N8 D7], the “Absolute DNA transfection efficiency” value is 6.7%.

For the compound `CCCCCCCCCCCCCCCSc1nc(NCCCCCCCC)nc(NCCCN2CCOCC2)n1` [S15N8 D8], the “Absolute DNA transfection efficiency” value turned out to be 7.9%.

`CCCCCCCCCCCCCCCSc1nc(NCCCCCCCC)nc(NCCCN2CCN(C)CC2)n1` [S15N8 D9]: the “Absolute DNA transfection efficiency” value is listed as 11.6%.

As to `CCCCCCCCCCCCCCCSc1nc(NCCCCCCCC)nc(NCC2CCN(C)CC2)n1` [S15N8 D10], the “Absolute DNA transfection efficiency” value was 19.4%.

For `CCCCCCCCCCCCCCCSc1nc(NCCCCCCCCC)nc(NCCN(C)C)n1` [S15N9 D1], the “Absolute DNA transfection efficiency” value was 21.3%.

With `CCCCCCCCCCCCCCCSc1nc(NCCCCCCCCC)nc(NCCN2CCOCC2)n1` [S15N9 D2], the “Absolute DNA transfection efficiency” value was found to be 9.7%.

Take `CCCCCCCCCCCCCCCSc1nc(NCCCCCCCCC)nc(NCCN2CCCC2)n1` [S15N9 D3]: the “Absolute DNA transfection efficiency” value turned out to be 30.1%.

Take `CCCCCCCCCCCCCCCSc1nc(NCCCCCCCCC)nc(NCCN2CCCCC2)n1` [S15N9 D4]: the “Absolute DNA transfection efficiency” value is 4.5%.

As to `CCCCCCCCCCCCCCCSc1nc(NCCCCCCCCC)nc(NCCN2CCN(C)CC2)n1` [S15N9 D5], the “Absolute DNA transfection efficiency” value is reported as 17.5%.

For `CCCCCCCCCCCCCCCSc1nc(NCCCCCCCCC)nc(NCCCN(C)C)n1` [S15N9 D6], the “Absolute DNA transfection efficiency” value is listed as 23.1%.

As for `CCCCCCCCCCCCCCCSc1nc(NCCCCCCCCC)nc(NCCN(CC)CC)n1` [S15N9 D7], the “Absolute DNA transfection efficiency” value stood at 16.4%.

Take `CCCCCCCCCCCCCCCSc1nc(NCCCCCCCCC)nc(NCCCN2CCOCC2)n1` [S15N9 D8]: the “Absolute DNA transfection efficiency” value came to 10.1%.

Take `CCCCCCCCCCCCCCCSc1nc(NCCCCCCCCC)nc(NCCCN2CCN(C)CC2)n1` [S15N9 D9]: the “Absolute DNA transfection efficiency” value amounted to 13.4%.

In the case of `CCCCCCCCCCCCCCCSc1nc(NCCCCCCCCC)nc(NCC2CCN(C)CC2)n1` [S15N9 D10], the “Absolute DNA transfection efficiency” value is 35.1%.

Take `CCCCCCCCCCCCCCCSc1nc(NCCCCCCCCCCC)nc(NCCN(C)C)n1` [S15N11 D1]: the “Absolute DNA transfection efficiency” value was determined as 12.9%.

`CCCCCCCCCCCCCCCSc1nc(NCCCCCCCCCCC)nc(NCCN2CCOCC2)n1` [S15N11 D2]: the “Absolute DNA transfection efficiency” value worked out at 19.3%.

Take `CCCCCCCCCCCCCCCSc1nc(NCCCCCCCCCCC)nc(NCCN2CCCC2)n1` [S15N11 D3]: the “Absolute DNA transfection efficiency” value was 20.9%.

On to `CCCCCCCCCCCCCCCSc1nc(NCCCCCCCCCCC)nc(NCCN2CCCCC2)n1` [S15N11 D4], for which the “Absolute DNA transfection efficiency” value came to 8.9%.

`CCCCCCCCCCCCCCCSc1nc(NCCCCCCCCCCC)nc(NCCN2CCN(C)CC2)n1` [S15N11 D5]: the “Absolute DNA transfection efficiency” value worked out at 11.8%.

As to `CCCCCCCCCCCCCCCSc1nc(NCCCCCCCCCCC)nc(NCCCN(C)C)n1` [S15N11 D6], the “Absolute DNA transfection efficiency” value stood at 12.9%.

With `CCCCCCCCCCCCCCCSc1nc(NCCCCCCCCCCC)nc(NCCN(CC)CC)n1` [S15N11 D7], the “Absolute DNA transfection efficiency” value worked out at 9.3%.

For the compound `CCCCCCCCCCCCCCCSc1nc(NCCCCCCCCCCC)nc(NCCCN2CCOCC2)n1` [S15N11 D8], the “Absolute DNA transfection efficiency” value was 6.1%.

As for `CCCCCCCCCCCCCCCSc1nc(NCCCCCCCCCCC)nc(NCCCN2CCN(C)CC2)n1` [S15N11 D9], the “Absolute DNA transfection efficiency” value is on record as 11.9%.

`CCCCCCCCCCCCCCCSc1nc(NCCCCCCCCCCC)nc(NCC2CCN(C)CC2)n1` [S15N11 D10]: the “Absolute DNA transfection efficiency” value amounted to 16.6%.

On to `CCCCCCCCCCCCCCCSc1nc(NCCCCCCCCCCCC)nc(NCCN(C)C)n1` [S15N12 D1], for which the “Absolute DNA transfection efficiency” value was 4.9%.

As for `CCCCCCCCCCCCCCCSc1nc(NCCCCCCCCCCCC)nc(NCCN2CCOCC2)n1` [S15N12 D2], the “Absolute DNA transfection efficiency” value was 0.0%.

In the case of `CCCCCCCCCCCCCCCSc1nc(NCCCCCCCCCCCC)nc(NCCN2CCCC2)n1` [S15N12 D3], the “Absolute DNA transfection efficiency” value came out at 11.5%.

Consider `CCCCCCCCCCCCCCCSc1nc(NCCCCCCCCCCCC)nc(NCCN2CCCCC2)n1` [S15N12 D4], for which the “Absolute DNA transfection efficiency” value came to 0.1%.

Turning to `CCCCCCCCCCCCCCCSc1nc(NCCCCCCCCCCCC)nc(NCCN2CCN(C)CC2)n1` [S15N12 D5], the “Absolute DNA transfection efficiency” value is 5.7%.

For `CCCCCCCCCCCCCCCSc1nc(NCCCCCCCCCCCC)nc(NCCCN(C)C)n1` [S15N12 D6], the “Absolute DNA transfection efficiency” value was 6.4%.

Take `CCCCCCCCCCCCCCCSc1nc(NCCCCCCCCCCCC)nc(NCCN(CC)CC)n1` [S15N12 D7]: the “Absolute DNA transfection efficiency” value is 5.9%.

Regarding `CCCCCCCCCCCCCCCSc1nc(NCCCCCCCCCCCC)nc(NCCCN2CCOCC2)n1` [S15N12 D8], the “Absolute DNA transfection efficiency” value came to 1.5%.

Turning to `CCCCCCCCCCCCCCCSc1nc(NCCCCCCCCCCCC)nc(NCCCN2CCN(C)CC2)n1` [S15N12 D9], the “Absolute DNA transfection efficiency” value was found to be 3.3%.

`CCCCCCCCCCCCCCCSc1nc(NCCCCCCCCCCCC)nc(NCC2CCN(C)CC2)n1` [S15N12 D10]: the “Absolute DNA transfection efficiency” value was found to be 4.3%.

Turning to `CCCCCCCCCCCCCCCSc1nc(NCCCCCCCCCCCCC)nc(NCCN(C)C)n1` [S15N13 D1], the “Absolute DNA transfection efficiency” value is on record as 0.4%.

Take `CCCCCCCCCCCCCCCSc1nc(NCCCCCCCCCCCCC)nc(NCCN2CCOCC2)n1` [S15N13 D2]: the “Absolute DNA transfection efficiency” value is listed as 0.0%.

For the compound `CCCCCCCCCCCCCCCSc1nc(NCCCCCCCCCCCCC)nc(NCCN2CCCC2)n1` [S15N13 D3], the “Absolute DNA transfection efficiency” value worked out at 4.2%.

As to `CCCCCCCCCCCCCCCSc1nc(NCCCCCCCCCCCCC)nc(NCCN2CCCCC2)n1` [S15N13 D4], the “Absolute DNA transfection efficiency” value amounted to 0.0%.

On to `CCCCCCCCCCCCCCCSc1nc(NCCCCCCCCCCCCC)nc(NCCN2CCN(C)CC2)n1` [S15N13 D5], for which the “Absolute DNA transfection efficiency” value worked out at 1.9%.

As to `CCCCCCCCCCCCCCCSc1nc(NCCCCCCCCCCCCC)nc(NCCCN(C)C)n1` [S15N13 D6], the “Absolute DNA transfection efficiency” value is listed as 2.7%.

On to `CCCCCCCCCCCCCCCSc1nc(NCCCCCCCCCCCCC)nc(NCCN(CC)CC)n1` [S15N13 D7], for which the “Absolute DNA transfection efficiency” value amounted to 5.5%.

Take `CCCCCCCCCCCCCCCSc1nc(NCCCCCCCCCCCCC)nc(NCCCN2CCOCC2)n1` [S15N13 D8]: the “Absolute DNA transfection efficiency” value is recorded as 0.2%.

On to `CCCCCCCCCCCCCCCSc1nc(NCCCCCCCCCCCCC)nc(NCCCN2CCN(C)CC2)n1` [S15N13 D9], for which the “Absolute DNA transfection efficiency” value was determined as 3.2%.

Consider `CCCCCCCCCCCCCCCSc1nc(NCCCCCCCCCCCCC)nc(NCC2CCN(C)CC2)n1` [S15N13 D10], for which the “Absolute DNA transfection efficiency” value is recorded as 0.0%.
